Data: the NIST ThermoML archive (doi:10.1016/j.fluid.2016.01.035)
± gives the expanded uncertainty stated by the source.

Columns and labels:
[1] = Molar enthalpy of transition or fusion; conditions: Crystal; DSC
[2] = molar enthalpy of vaporization or sublimation; conditions: 298.15 K; Crystal; TGA
[3] = for vapor or sublimation pressure: Liquid, Transpiration method

Molar enthalpy of transition or fusion [1] [kcal/mol] | molar enthalpy [2] [kcal/mol] | Normal melting temperature ([3]; Crystal, DTA) [°C] | vapor or sublimation pressure ([3]; 340.2 K) [kPa] | vapor or sublimation pressure ([3]; 343.2 K) [kPa] | vapor or sublimation pressure ([3]; 348.2 K) [kPa] | vapor or sublimation pressure ([3]; 353.1 K) [kPa] | vapor or sublimation pressure ([3]; 358.2 K) [kPa] | vapor or sublimation pressure ([3]; 363.2 K) [kPa] | vapor or sublimation pressure ([3]; 368.1 K) [kPa] | vapor or sublimation pressure ([3]; 370.2 K) [kPa] | vapor or sublimation pressure ([3]; 373.2 K) [kPa] | vapor or sublimation pressure ([3]; 376.2 K) [kPa] | Compound
8.29 ± 0.191 | 32.4 ± 0.478 | 172.8 ± 0.5 |  |  |  |  |  |  |  |  |  |  | COc1cc(C=CC(=O)O)ccc1O [4-hydroxy-3-methoxycinnamic acid]
5.62 ± 0.55 |  |  | 9.7e-05 ± 4e-06 | 0.000128 ± 6e-06 | 0.00021 ± 9e-06 | 0.000324 ± 1.4e-05 | 0.000513 ± 2.2e-05 | 0.000769 ± 3.3e-05 | 0.00117 ± 5e-05 | 0.0014 ± 6e-05 | 0.00179 ± 8e-05 | 0.00229 ± 0.0001 | COC(=O)C=Cc1ccc(O)c(OC)c1 [methyl 3-(4-hydroxy-3-methoxyphenyl)-2-propenoate]
